Assay results as given in article PMC8459971, “Evaluation of the hepatotoxicity of the novel GPR40 (FFAR1) agonist CPL207280 in the rat and monkey” (PLoS ONE, 2021).
Where “and” joins values, the source holds several entries; their conditions need not be identical. Equal values may be shown once.

Legend:
NTCP = target: T1, NTCP (Homo sapiens, UniProt Q14973); assay: Uptake transporter inhibition assay, NTCP; assay type: cell-based; details: for Accumulation (counts per minute; CPM) HEK293-NTCP / Accumulation (counts per minute; CPM) HEK293FT-MOCK: NTCP
T1 construct: expressed in transfected cells; host or cells: HEK cells
T1 sequence (Q14973 1-349): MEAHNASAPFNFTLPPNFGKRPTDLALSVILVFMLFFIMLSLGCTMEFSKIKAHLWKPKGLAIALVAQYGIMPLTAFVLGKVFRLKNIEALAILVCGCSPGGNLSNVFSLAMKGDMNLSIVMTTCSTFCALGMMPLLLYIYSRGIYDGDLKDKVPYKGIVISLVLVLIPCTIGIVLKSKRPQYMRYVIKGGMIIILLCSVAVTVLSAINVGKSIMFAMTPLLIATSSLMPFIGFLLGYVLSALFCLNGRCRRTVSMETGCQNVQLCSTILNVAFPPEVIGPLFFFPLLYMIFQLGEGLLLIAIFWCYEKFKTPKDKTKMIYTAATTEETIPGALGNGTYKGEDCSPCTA
Description: For the uptake transporter inhibition assay, cells were washed twice with 100 μL of the appropriate buffer (HK, pH 7.4) for OATP1B1, followed by HBSS (pH 7.4) for (NTCP, OAT1, OAT2v1, OATP1A2, and OATP1B3). Uptake experiments were carried out at 37 ± 1°C in 50 μL of the respective buffer containing the probe substrate and the compound or solvent.

MRP2 = MRP2 (Homo sapiens, UniProt Q92887); assay: Vesicular transport inhibition assay, MRP2; details: for Accumulation (counts per minute; CPM) with AMP / Accumulation (counts per minute; CPM) with ATP: MRP2;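 further: membrane vesicles with probe substrate plus 2 mM glutathione, incubated with 4 mM ATP or AMP (AMP as background control), vesicle-retained substrate measured by liquid scintillation counting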;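 on Accumulation (counts per minute; CPM) with AMP: ATP 4 mM vs AMP background separates transporter uptake from diffusion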;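 on Accumulation (counts per minute; CPM) with ATP: ATP 4 mM vs AMP background separates transporter uptake from diffusion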
Description: (§1) In the vesicular transport inhibition assay (for BSEP, MRP) compounds were incubated with membrane vesicle preparations and the probe substrate. Incubations were carried out in the presence of 4 mM ATP or AMP to distinguish between transporter-mediated uptake and passive diffusion into the vesicles. For MRP2 and MRP3, reactions were carried out in the presence of 2 mM glutathione. Compounds were added to the reaction mixture in 0.75 μL of solvent (1% of the final incubation volume). […] Reactions were initiated by the addition of 25 μL of 12 mM MgATP (or 12 mM AMP in assay buffer as a background control) and preincubated separately. Reactions were quenched by the addition of 200 μL of ice-cold washing buffer and immediate filtration via glass fiber filters mounted on a 96-well plate (filter plate). The filters were washed (5 × 200 μL of ice-cold washing buffer), dried, and the amount of substrate inside the filtered vesicles was determined by liquid scintillation counting.

[1] = Stability in microsomes, mouse; assay type: in vitro ADME; details: for average DEG [%]: mouse microsomes, with cofactors
Description: The final incubation volume was 500 μL. Two control compounds (verapamil and donepezil) were included for each microsomal species, along with the appropriate vehicle control. The reactions were terminated by transferring 50 μL of incubate to 100 μL methanol containing an internal standard (metoprolol) at appropriate time points (0, 10, 20, 40, 60, and 120 min for the test compound and 0, 5, 10, 20, 40, and 60 min for the control compounds). The termination plates were centrifuged at 4000 x g at 4°C for 30 min to precipitate the protein. The supernatants were then collected for analysis, and LC-MS/MS was used for detection purposes. The system consisted of an Acquity™ Binary Solvent Manager, Acquity™ 4-position heated column manager, 2777 Ultra High Pressure Autosampler, and a Xevo-TQ MS triple quadrupole mass spectrometer (Waters Ltd., Herts, UK). This process was carried out twice.

MRP4 = target: T2, MRP4 (Homo sapiens, UniProt O15439); assay: Vesicular transport inhibition assay, MRP4; details: for Accumulation (counts per minute; CPM) with AMP / Accumulation (counts per minute; CPM) with ATP: MRP4;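 further: membrane vesicles with MRP4 incubated with compound and probe substrate plus 4 mM ATP, or AMP as passive-diffusion background, vesicular substrate uptake read by liquid scintillation counting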;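 on Accumulation (counts per minute; CPM) with AMP: ATP 4 mM vs AMP background separates transporter uptake from diffusion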;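 on Accumulation (counts per minute; CPM) with ATP: ATP 4 mM vs AMP background separates transporter uptake from diffusion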
T2 sequence (O15439 1-1325): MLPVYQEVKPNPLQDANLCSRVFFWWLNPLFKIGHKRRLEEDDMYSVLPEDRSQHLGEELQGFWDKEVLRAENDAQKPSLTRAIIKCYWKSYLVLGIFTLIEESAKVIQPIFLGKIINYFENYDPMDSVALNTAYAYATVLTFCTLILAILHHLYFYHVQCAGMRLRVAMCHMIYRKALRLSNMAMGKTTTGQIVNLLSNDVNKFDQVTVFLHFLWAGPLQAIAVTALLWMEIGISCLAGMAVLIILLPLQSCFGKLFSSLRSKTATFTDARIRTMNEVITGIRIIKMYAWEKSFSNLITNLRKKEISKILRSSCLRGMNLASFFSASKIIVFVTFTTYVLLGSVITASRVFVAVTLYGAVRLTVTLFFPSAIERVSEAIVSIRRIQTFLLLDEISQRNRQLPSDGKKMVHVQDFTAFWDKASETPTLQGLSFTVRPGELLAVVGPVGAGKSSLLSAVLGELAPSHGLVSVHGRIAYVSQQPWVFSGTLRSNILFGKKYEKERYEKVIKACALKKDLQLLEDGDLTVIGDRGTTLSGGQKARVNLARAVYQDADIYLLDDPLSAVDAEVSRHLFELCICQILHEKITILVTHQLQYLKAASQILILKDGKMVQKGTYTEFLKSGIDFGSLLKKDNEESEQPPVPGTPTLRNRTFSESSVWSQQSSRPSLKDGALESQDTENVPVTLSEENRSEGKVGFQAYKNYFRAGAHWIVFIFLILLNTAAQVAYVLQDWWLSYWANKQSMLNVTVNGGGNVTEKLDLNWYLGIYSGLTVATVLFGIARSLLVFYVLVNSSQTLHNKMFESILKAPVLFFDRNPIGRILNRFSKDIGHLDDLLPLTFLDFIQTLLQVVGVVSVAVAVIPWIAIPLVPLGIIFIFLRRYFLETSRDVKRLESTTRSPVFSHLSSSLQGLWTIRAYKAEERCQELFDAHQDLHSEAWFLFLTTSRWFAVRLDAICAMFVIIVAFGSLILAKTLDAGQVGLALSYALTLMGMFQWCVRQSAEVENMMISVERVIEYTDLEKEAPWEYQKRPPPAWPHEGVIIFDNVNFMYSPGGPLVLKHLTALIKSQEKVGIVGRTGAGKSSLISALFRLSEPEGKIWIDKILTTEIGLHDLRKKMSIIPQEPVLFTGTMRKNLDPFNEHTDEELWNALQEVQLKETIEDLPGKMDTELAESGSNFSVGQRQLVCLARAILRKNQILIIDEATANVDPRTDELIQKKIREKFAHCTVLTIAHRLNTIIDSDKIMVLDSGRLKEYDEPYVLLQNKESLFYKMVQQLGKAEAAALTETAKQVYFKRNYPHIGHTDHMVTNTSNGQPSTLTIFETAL
Description: as §1

[2] = Mouse (CD) microsomes, mean n = 2

Chain of MRP2 (Q92887 whole entry, the tested form may be a part): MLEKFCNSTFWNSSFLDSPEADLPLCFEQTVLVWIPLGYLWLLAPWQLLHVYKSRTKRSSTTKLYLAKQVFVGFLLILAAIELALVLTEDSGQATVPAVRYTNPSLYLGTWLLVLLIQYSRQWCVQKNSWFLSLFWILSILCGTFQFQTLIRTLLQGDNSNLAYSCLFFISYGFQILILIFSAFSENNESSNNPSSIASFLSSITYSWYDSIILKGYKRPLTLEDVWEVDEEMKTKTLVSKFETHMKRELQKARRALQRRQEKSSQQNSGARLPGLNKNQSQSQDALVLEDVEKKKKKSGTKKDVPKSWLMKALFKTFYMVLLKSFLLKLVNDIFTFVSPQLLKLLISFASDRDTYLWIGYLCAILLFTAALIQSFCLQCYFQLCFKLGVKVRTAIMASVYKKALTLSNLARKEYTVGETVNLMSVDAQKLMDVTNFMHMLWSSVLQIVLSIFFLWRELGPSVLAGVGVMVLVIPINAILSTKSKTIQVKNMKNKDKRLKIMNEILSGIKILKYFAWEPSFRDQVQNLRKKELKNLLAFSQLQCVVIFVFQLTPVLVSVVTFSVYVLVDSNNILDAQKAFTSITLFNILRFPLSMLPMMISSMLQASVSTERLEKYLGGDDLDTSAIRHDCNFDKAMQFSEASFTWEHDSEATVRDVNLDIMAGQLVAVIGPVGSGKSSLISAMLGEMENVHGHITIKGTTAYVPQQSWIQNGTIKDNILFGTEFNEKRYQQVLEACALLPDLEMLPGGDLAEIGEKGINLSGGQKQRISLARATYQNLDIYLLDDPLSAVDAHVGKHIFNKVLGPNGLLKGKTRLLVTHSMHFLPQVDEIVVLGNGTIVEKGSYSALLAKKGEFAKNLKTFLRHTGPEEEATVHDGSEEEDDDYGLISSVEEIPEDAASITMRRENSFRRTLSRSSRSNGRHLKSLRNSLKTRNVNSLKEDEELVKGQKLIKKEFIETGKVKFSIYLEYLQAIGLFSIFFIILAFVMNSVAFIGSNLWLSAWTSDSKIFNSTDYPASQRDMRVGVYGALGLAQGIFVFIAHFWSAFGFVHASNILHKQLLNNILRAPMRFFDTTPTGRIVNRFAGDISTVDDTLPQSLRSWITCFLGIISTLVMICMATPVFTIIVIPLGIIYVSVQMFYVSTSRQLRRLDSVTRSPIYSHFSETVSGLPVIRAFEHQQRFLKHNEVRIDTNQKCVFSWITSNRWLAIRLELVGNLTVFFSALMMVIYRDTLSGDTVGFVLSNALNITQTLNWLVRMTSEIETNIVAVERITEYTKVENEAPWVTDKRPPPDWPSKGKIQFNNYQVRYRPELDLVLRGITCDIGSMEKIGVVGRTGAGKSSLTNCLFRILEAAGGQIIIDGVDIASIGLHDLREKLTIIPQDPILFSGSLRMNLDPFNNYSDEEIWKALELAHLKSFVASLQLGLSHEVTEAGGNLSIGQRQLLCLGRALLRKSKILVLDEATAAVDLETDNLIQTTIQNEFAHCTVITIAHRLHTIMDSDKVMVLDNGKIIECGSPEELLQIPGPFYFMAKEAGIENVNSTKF

## CC#C[C@@H](CC(=O)O)c1ccc(OCC(C)=C(C)C)cc1 [CPL207280]
NTCP; conc 0.10 µM
  Accumulation (counts per minute; CPM) HEK293-NTCP: 4707 CPM and 4966 CPM
  Accumulation (counts per minute; CPM) HEK293FT-MOCK: 25 CPM
NTCP; conc 1.00 µM
  Accumulation (counts per minute; CPM) HEK293-NTCP: 4654 CPM and 4992 CPM
  Accumulation (counts per minute; CPM) HEK293FT-MOCK: 29 CPM and 25 CPM
NTCP; conc 3.00 µM
  Accumulation (counts per minute; CPM) HEK293-NTCP: 4021 CPM and 4291 CPM
  Accumulation (counts per minute; CPM) HEK293FT-MOCK: 19 CPM and 23 CPM
NTCP; conc 10.00 µM
  Accumulation (counts per minute; CPM) HEK293-NTCP: 3614 CPM and 3535 CPM
  Accumulation (counts per minute; CPM) HEK293FT-MOCK: 24 CPM and 36 CPM
NTCP; conc 30.00 µM
  Accumulation (counts per minute; CPM) HEK293-NTCP: 2611 CPM and 3022 CPM
  Accumulation (counts per minute; CPM) HEK293FT-MOCK: 21 CPM
NTCP; conc 100.00 µM
  Accumulation (counts per minute; CPM) HEK293-NTCP: 1462 CPM and 1666 CPM
  Accumulation (counts per minute; CPM) HEK293FT-MOCK: 25 CPM and 27 CPM
NTCP; conc 300.00 µM
  Accumulation (counts per minute; CPM) HEK293-NTCP: 771 CPM and 846 CPM
  Accumulation (counts per minute; CPM) HEK293FT-MOCK: 29 CPM and 23 CPM
NTCP; transformed HEK cells, up to 300μM, n = 2
  IC50: 46.8 µM
MRP2; conc 0.10 µM
  Accumulation (counts per minute; CPM) with AMP: 198 CPM and 164 CPM
  Accumulation (counts per minute; CPM) with ATP: 2936 CPM and 2989 CPM
MRP2; conc 1.00 µM
  Accumulation (counts per minute; CPM) with AMP: 160 CPM and 140 CPM
  Accumulation (counts per minute; CPM) with ATP: 2976 CPM and 3333 CPM
MRP2; conc 3.00 µM
  Accumulation (counts per minute; CPM) with AMP: 225 CPM and 205 CPM
  Accumulation (counts per minute; CPM) with ATP: 3200 CPM and 3253 CPM
MRP2; conc 10.00 µM
  Accumulation (counts per minute; CPM) with AMP: 218 CPM and 206 CPM
  Accumulation (counts per minute; CPM) with ATP: 3353 CPM and 3206 CPM
MRP2; conc 30.00 µM
  Accumulation (counts per minute; CPM) with AMP: 203 CPM and 192 CPM
  Accumulation (counts per minute; CPM) with ATP: 3191 CPM and 3541 CPM
MRP2; conc 100.00 µM
  Accumulation (counts per minute; CPM) with AMP: 195 CPM and 185 CPM
  Accumulation (counts per minute; CPM) with ATP: 3680 CPM and 3660 CPM
MRP2; conc 300.00 µM
  Accumulation (counts per minute; CPM) with AMP: 129 CPM and 125 CPM
  Accumulation (counts per minute; CPM) with ATP: 3852 CPM and 4100 CPM
MRP2; vesicles, up to 300μM, n = 2
  MRP2 Estimated IC50 (95% CI of IC50): no affinity
[1]; [2]
  half-life at 3 μM: 1.93 h
  microsomal CLint at 3 μM: 11.9 µL/min/mg
[1]; 0 min
  average DEG [%]: 100.0%
[1]; 20 min
  average DEG [%]: 83.3%
[1]; 40 min
  average DEG [%]: 69.8%
[1]; 60 min
  average DEG [%]: 71.2%
MRP4
  IC50: 131 µM
  fold less inhibitory potency than TAK-875, MRP4: at least 10 fold
MRP4; conc 0.10 µM
  Accumulation (counts per minute; CPM) with AMP: 1154 CPM and 1110 CPM
  Accumulation (counts per minute; CPM) with ATP: 5335 CPM and 5537 CPM
MRP4; conc 1.00 µM
  Accumulation (counts per minute; CPM) with AMP: 1207 CPM and 1074 CPM
  Accumulation (counts per minute; CPM) with ATP: 5159 CPM and 5701 CPM
MRP4; conc 3.00 µM
  Accumulation (counts per minute; CPM) with AMP: 1157 CPM and 1113 CPM
  Accumulation (counts per minute; CPM) with ATP: 5157 CPM and 5321 CPM
MRP4; conc 10.00 µM
  Accumulation (counts per minute; CPM) with AMP: 1132 CPM and 1046 CPM
  Accumulation (counts per minute; CPM) with ATP: 4884 CPM and 5225 CPM
MRP4; conc 30.00 µM
  Accumulation (counts per minute; CPM) with AMP: 1054 CPM and 1003 CPM
  Accumulation (counts per minute; CPM) with ATP: 4460 CPM and 4110 CPM
MRP4; conc 100.00 µM
  Accumulation (counts per minute; CPM) with AMP: 1090 CPM and 1013 CPM
  Accumulation (counts per minute; CPM) with ATP: 3600 CPM and 3817 CPM
MRP4; conc 300.00 µM
  Accumulation (counts per minute; CPM) with AMP: 1018 CPM and 920 CPM
  Accumulation (counts per minute; CPM) with ATP: 2078 CPM and 2196 CPM
